For one data set, the system named is TGFβ1/p38 pathway. Description: Immunoblotting of p-p38 in HDFs. As to conditions: high glucose. It counts as cell-based, human. How it is done:
For in vitro tests, protein lysates were collected from HDFs. Pre-cooled cell scrapers were used to detach the cells, and the cells were re-suspended in RIPA lysis buffer with the inhibitor cocktail. For in vivo tests, wound skin tissues were washed three times with pre-cooled DPBS, dissected into small pieces, and re-suspended in RIPA lysis buffer containing protease and phosphatase inhibitors. Homogenization was then performed thereafter with an ultrasonic processor (Cole Parmer). After centrifugation at 12,000 g for 20 min, the supernatants were collected, and protein concentrations were measured using a Bradford protein assay kit (Bio-rad).
The protein samples were separated by 10% Mini-PROTEAN TGX stain-free precast gels (Bio-rad) and transferred onto an immune-blot PVDF membrane. The blots were washed three times with DPBS containing 0.1% Tween 20 (PBST), blocked with 5% milk powder in PBST buffer for 40 min, and incubated with primary antibodies at specific dilutions overnight at 4° C. The primary antibodies included rabbit GAPDH antibody (1:5000, Cell signaling), rabbit anti-a-smooth muscle actin (α-SMA) antibody (1:2000, Cell signaling), rabbit anti-phospho-Smad2(Ser465/467)/Smad3 (Ser423/425) (1:500, Cell signaling), and rabbit anti-phospho-p38 (1:500, Cell signaling). The membranes were washed three times with PBST and incubated with horseradish peroxidase (HRP)-conjugated secondary antibodies (1:2500). Immunoblots were then washed with PBST and detected with a WesternBright HRP substrate detection kit (Advansta). The ChemiDoc XPS+system (Bio-rad) was used to image the blots.
Background: Immunoblotting shows a protein as a band on a membrane.

Data set [1] can be described thus: In vitro release of peptide from hydrogel. The class given is physicochemical. As to conditions: loadings 10, 20, 50 μg/mL; three weeks. How it is done:
To characterize the ECG release properties of the NIPAAm-based hydrogels disclosed herein, the following experiments were conducted. Hydrogel samples were synthesized with varying levels of ECG loading: 10 μg/mL, 20 μg/mL, and 50 μg/mL. The cumulative release of ECG from the hydrogel samples was assessed over a three-week period.
Wound dressings were fabricated by encapsulating PTβR2I in the hydrogel solution at 4° C. Briefly, PTβR2I solution was mixed with 6 wt. % hydrogel solution to reach final PTβR2I concentrations of 10 μg/mL, 20 μg/mL and 50 μg/mL. The mixtures were stirred at 4° C. for 12 hours. To determine PTβR2I release kinetics, the mixtures were first incubated at 37° C. to gel. After 1 hour, the supernatant was replaced by a release medium (DPBS with 1% P/S). The medium was then collected at pre-determined time points for 21 days, and a fresh release medium was added after each collection. The concentration of the released PTβR2I was determined by measuring the fluorescence intensity and calculating the corresponding concentration using a standard curve. The bioactivity of the released PTβR2I was evaluated by its ability to bind to the TβR2 on the HDFs. […] After 2 hours of incubation, the cells were washed three times with DPBS, and the fluorescence intensity was measured using a microplate reader (excitation/emission=485/535 nm).

The test system of data set [2] is dermal wounds of db/db mice. The experiment in a line: Example 3 dermal wound closure, subcutaneous ECG/gel. The class given is in vivo. How it is done: db/db (Diabetic, […]) mice were used as an animal wound model. Dermal wounds were created using sterile 5 mm biopsy punches to expose the underlying muscle fascia, followed by subcutaneous injection of either control gel (6 wt %) or ECG/gel (50 μg/mL ECG in 6 wt % gel). In addition, a subgroup of the dermally-wounded mice was left untreated as controls. The dermal wounds of all mice were observed every other day until recovery using a digital camera to record successive images as well as measuring wound size using digital calipers. Image analysis using ImageJ was also performed to do a blind measurement of wound size. Subgroups of the mice were sacrificed at three different time points: day 3, day 8, and day 16. Skin samples were collected from the sacrificed mice for histology, immunohistochemistry analysis, and Western blot studies.

For a further data set, the system named is HDF, HaCaT, HAECs, BMM. Description: Example 4 in vitro survival, migration, cytokine and growth factor secretion with TGF-beta I and high glucose. The class given is cell-based, human, mouse. From the text:
Human dermal fibroblasts (HDF), human skin keratinocytes (HaCaT), human artery endothelial cells (HAECs), and mouse bone marrow-derived macrophages (BMM) were used to test the in vitro survival, migration, secretion of inflammatory cytokines, and angiogenic growth factors in the presence of TGF-beta I and high glucose content.
FIG. 4B is a Western blot of p38 and GAPDH (control) expression for dermal fibroblasts under high glucose levels. Untreated cells (control) were compared with cells exposed to 10 ng/ml of TGFβ with ECG treatments of 0 μg/mL, 10 μg/mL, and 1 μg/mL.

Entries after “also recorded” stand apart in the source; their conditions may differ.

For the molecule `Oc1ccc(-c2nc(-c3ccncc3)c(-c3ccc(F)cc3)[nH]2)cc1` [SB202190, reference compound], the p-p38 expression entry with TGFβ1/p38 pathway (with TGFβ1) was “notably downregulated”.
ECGLLPVGRPDRVWRLCK: the “duration of initial rapid release of ECG from hydrogel” value in data set [1] lay within 3 to 4 days. Besides, the “p38 expression in wound tissues” value in data set [2] (Western blot vs control gel) is “suppressed; also recorded: downregulated”. Also, the “increase of blood vessel density and mature blood vessel density vs control” value in data set [2] (day 8) is reported as “up to 4 fold”. For the same molecule, the “survival and migration of keratinocytes, fibroblasts, and endothelial cells” value with HDF, HaCaT, HAECs, BMM (presence of TGF-beta I) is “improved”. Moreover, in the data set on HDF, HaCaT, HAECs, BMM (various cell types), the “angiogenic growth factor secretions” value is on record as “promoted” and the pro-inflammatory cytokines expression result is “suppressed”.
As to “TGFβ1: growth factor used as stimulus, 10 ng/ml”, in the data set with TGFβ1/p38 pathway, the “increase in baseline phosphorylation of p38 relative to no TGFβ1 group” value is about 4 fold.

The values are drawn from patent US20240181125A1, “COMPOSITIONS AND METHODS FOR SCARLESS WOUND HEALING IN DIABETES” (Washington University, priority 2022, published 2024).
